Test results as given in patent publication US20060281789A1, “Protein kinase inhibitors” (KYOWA HAKKO KOGYO CO., LTD, priority 2003, published 2006).
Where a name gives a salt, the structure may show the parent alone.

How the values were obtained:
human Flt-3 = molecular target: T1, human Flt-3 (Homo sapiens, UniProt P36888); assay: Inhibitory activity on Flt-3 (GST-fused kinase, time-resolved fluoroimmunoassay); assay type: biochemical; settings: tested compound 10 μmol/L, ATP 10 μmol/L, sixty minutes
T1 construct: fused to the N-terminus of the intracellular domain (583-953 amino acids) thereof; made in house; host or cells: insect cells (baculovirus)
T1 sequence (P36888 583-953): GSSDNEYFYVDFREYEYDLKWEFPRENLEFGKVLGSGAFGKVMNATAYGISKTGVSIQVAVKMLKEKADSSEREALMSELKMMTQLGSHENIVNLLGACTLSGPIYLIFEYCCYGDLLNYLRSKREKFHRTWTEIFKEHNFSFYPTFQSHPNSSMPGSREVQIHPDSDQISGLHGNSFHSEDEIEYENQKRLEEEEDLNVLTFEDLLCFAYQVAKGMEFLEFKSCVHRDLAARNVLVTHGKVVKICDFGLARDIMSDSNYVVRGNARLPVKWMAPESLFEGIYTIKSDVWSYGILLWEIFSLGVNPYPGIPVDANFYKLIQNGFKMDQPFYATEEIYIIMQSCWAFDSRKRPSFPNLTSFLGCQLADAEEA
Experimental: Flt-3 inhibitory activities were determined in the following manner.
Flt-3 was prepared by allowing baculovirus to infect insect cells, which baculovirus expresses a protein comprising human Flt-3 with […]. […] Separately was prepared a solution containing, at final concentrations, GST-fused Flt-3 (100 μg/L), Tris-Cl (pH 7.5) (20 mmol/L), β-glycerophosphate (5 mmol/L), dithiothreitol (DTT) (1 mmol/L), Na3VO4 (0.1 mmol/L), MgCl2 (10 mmol/L), MnCl2 (10 mmol/L), ATP (10 μmol/L), bovine serum albumin (BSA) (0.1%), DMSO (0.1%), and a tested compound (10 μmol/L). The solution (each 60 μL) was placed into the wells of the plate for the determination of kinase reaction, followed by enzymatic reaction at room temperature for sixty minutes. After reacting, the reaction was stopped by the addition of 50 μL of a 25 mmol/L aqueous solution of ethylenediaminetetraacetic acid. […] The relative activity (%) of a well in which the enzyme and tested compound were added was determined by calculation with the value in a well to which the tested compound was not added being 100% and the value in a well to which the enzyme and the tested compound were not added being 0%. The Flt-3 inhibitory activity (%) of the tested compound was determined by subtracting the relative activity (%) from 100.

MV-4-11 = assay: Cytostatic activity on human acute myeloid leukemia cell line MV-4-11 (WST-1); assay type: cell-based; settings: MV4-11, 3.16 μmol/L, 72 hours, read-out: MV-4-11 (%) cytostatic rate
Experimental: (§1) The cytostatic rates of a test compound on human acute myeloid leukemia cell lines MV-4-11 and ML-1, and human chronic myeloid leukemia cell line K562 were determined in the following manner.
(§2) Each cell was cultured using Roswell Park Memorial Institute's Medium (RPMI) 1640 (Gibco, Catalog No. 11875-093) containing 10% fetal bovine serum (Gibco, Catalogue No. 10437-028) and penicillin/streptomycin (1:1) (Gibco, Catalogue No. 15140-122). Each 80 μL of the MV-4-11 cell having a concentration of 7.5×10^4 cells/mL (or the ML-1 cell or K562 cell having a concentration of 2.5×10^4 cells/mL) was inoculated to wells of a TC MICROWELL 96U plate (Nalge Nunc International, Catalogue No. 163320) and was cultured in a 5% carbon dioxide gas incubator at 37° C. for 4 hours. As a blank, only RPMI medium (80 μL) was added to a well. Each 20 μL of a solution of the test compound in dimethyl sulfoxide (DMSO) which was prepared to make the final concentration to 3.16 μmol/L or 10 μmol/L, was added to the MV-4-11 cell, ML-1 cell and K562 cell, respectively. Each 20 μL of DMSO was added to the control well and the blank well to a final concentration of 0.1%. After adding the test compound, the cells were incubated in a 5% carbon dioxide gas incubator at 37° C. for 72 hours. After adding 20 μL of WST-1 reagent {4-[3-(4-iodophenyl)-2-(4-nitrophenyl)-2H-5-tetrazolio]-1,3-benzene disulfonate sodium salt) (Roche Diagnostics K.K., Catalogue No. 1644807) diluted to 50% with RPMI medium, the cells were further incubated at 37° C. for 2 hours. Then, the absorbances at 450 nm (reference wavelength: 690 nm) were determined with a microplate spectrophotometer SPECTRA max 340PC (Molecular Devices Corporation). The relative growth (%) of a well to which the test compound had been added was determined while setting the absorbance of a well to which not the test compound but DMSO alone had been added (control) at 100% and that of a well containing RPMI medium alone at 0%. The cytostatic rate (%) of the test compound was determined by subtracting the calculated relative growth from 100.

ML-1 = assay: Cytostatic activity on human acute myeloid leukemia cell line ML-1 (WST-1); assay type: cell-based; settings: ML1, 3.16 μmol/L, 72 hours, read-out: ML-1 (%) cytostatic rate
Experimental: as §1, §2

K562 = assay: Cytostatic activity on human chronic myeloid leukemia cell line K562 (WST-1); assay type: cell-based; settings: 10 μmol/L, 72 hours, read-out: K562 (%) cytostatic rate
Experimental: as §1, §2

inhibition at 10 µM (human Flt-3) [%]	Compound	also measured
91	O=C(NCCN1CCOCC1)c1ccc(/C=C/c2n[nH]c3ccccc23)cc1 [Compound 61, (E)-N-(2-morpholinoethyl)-4-[2-(1H-indazol-3-yl)vinyl]benzamide]	
	C(=C\c1n[nH]c2ccccc12)/c1cccnc1 [Compound 21, (E)-3-[2-(3-pyridyl)vinyl]-1H-indazole]	inhibition at 3.16 µM (MV-4-11): 79%; inhibition at 3.16 µM (ML-1): 25%; inhibition at 10 µM (K562): 41%
90.2	CS(=O)(=O)Nc1cc(/C=C/c2n[nH]c3ccccc23)ccc1OCCN1CCOCC1 [Compound 60, (E)-N-{5-[2-(1H-Indazol-3-yl)vinyl]-2-(2-morpholinoethoxy)phenyl}methanesulfonamide]	
95	O=C(c1ccc(/C=C/c2n[nH]c3ccccc23)cc1)N1CCN(C(=O)[C@H]2CCNC2)CC1 [Compound 72, (S)-(E)-1-{4-[2-(1H-indazol-3-yl)vinyl]benzoyl}-4-(pyrrolidin-3-ylcarbonyl)piperazine dihydrochloride]	
	OCCOc1ccc(/C=C/c2n[nH]c3ccccc23)cc1 [Compound 4, (E)-3-{2-[4-(2-hydroxyethoxy)phenyl]vinyl}-1H-indazole]	inhibition at 3.16 µM (MV-4-11): 91%; inhibition at 3.16 µM (ML-1): 27%; inhibition at 10 µM (K562): 72%
	CC(C)N(CCOc1ccc(/C=C/c2n[nH]c3ccccc23)cc1)C(C)C [Compound 7, (E)-3-{2-[4-(2-diisopropylaminoethoxy)phenyl]vinyl}-1H-indazole hydrochloride]	inhibition at 3.16 µM (MV-4-11): 97%; inhibition at 3.16 µM (ML-1): 89%; inhibition at 10 µM (K562): 93%
	CC(C)(N)C(=O)N1CCN(C(=O)c2ccc(/C=C/c3n[nH]c4ccccc34)cc2)CC1.Cl.Cl [Compound 74, (E)-4-(2-amino-2-methylpropionyl)-1-{4-[2-(1H-indazol-3-yl)vinyl]benzoyl}piperazine dihydrochrolide]	Inhibitory activity on Flt-3 (%) (human Flt-3): 97.0%
	CCN(CC)CCOc1ccc(/C=C/c2n[nH]c3ccccc23)cc1 [Compound 6, (E)-3-{2-[4-(2-diethylaminoethoxy)phenyl]vinyl}-1H-indazole hydrochloride]	inhibition at 3.16 µM (MV-4-11): 97%; inhibition at 3.16 µM (ML-1): 89%; inhibition at 10 µM (K562): 98%
	C(=C\c1n[nH]c2ccccc12)/c1ccc(OCCN2CCCCC2)cc1 [Compound 8, (E)-3-{2-[4-(2-piperidinoethoxy)phenyl]vinyl}-1H-indazole hydrochloride]	inhibition at 3.16 µM (MV-4-11): 97%; inhibition at 3.16 µM (ML-1): 90%; inhibition at 10 µM (K562): 94%
95.8	COCC(=O)N1CCN(C(=O)c2ccc(/C=C/c3n[nH]c4ccccc34)cc2)CC1 [Compound 69, (E)-4-methoxyacetyl-1-{4-[2-(1H-indazol-3-yl)vinyl]benzoyl}piperazine]	
95.7	CCOC(=O)N1CCN(C(=O)c2ccc(/C=C/c3n[nH]c4ccccc34)cc2)CC1 [Compound 66, (E)-1-{4-[2-(1H-indazol-3-yl)vinyl]benzoyl}-4-ethoxycarbonylpiperazine]	
96.4	O=C(c1ccncc1)N1CCN(C(=O)c2ccc(/C=C/c3n[nH]c4ccccc34)cc2)CC1 [Compound 67, (E)-1-{4-[2-(1H-indazol-3-yl)vinyl]benzoyl}-4-(isonicotinoyl)piperazine]	
97.4	CC(C)(C)OC(=O)N1CCN(C(=O)c2ccc(/C=C/c3n[nH]c4ccccc34)cc2)CC1 [Compound 63, (E)-4-{4-[2-(1H-indazol-3-yl)vinyl]benzoyl)piperazine-1-carboxylic acid 1,1-dimethylethylester]	
93.9	O=C(c1ccc(/C=C/c2n[nH]c3ccccc23)cc1)N1CCN(C(=O)[C@@H]2CCCN2)CC1 [Compound 76, (S)-(E)-4-[(pyrrolidin-2-yl)carbonyl]-1-{4-[2-(1H-indazol-3-yl)vinyl]benzoyl}piperazine]	
99.2	Nc1cc(/C=C/c2n[nH]c3ccccc23)ccc1OCCN1CCOCC1 [Compound 38, (E)-3-{2-[3-amino-4-(2-morpholinoethoxy)phenyl]vinyl}-1H-indazole]	
95.2	NC1CCN(C(=O)c2ccc(/C=C/c3n[nH]c4ccccc34)cc2)C1 (centres unmarked) [Compound 71, (E)-1-{4-[2-(1H-indazol-3-yl)vinyl]benzoyl}-3-aminopyrrolidine dihydrochloride]	
96.3	CN1CCC(C(=O)N2CCN(C(=O)c3ccc(/C=C/c4n[nH]c5ccccc45)cc3)CC2)CC1 [Compound 77, (E)-4-[(1-methylpiperidin-4-yl)carbonyl]-1-(4-[2-(1H-indazol-3-yl)vinyl]benzoyl)piperazine]	
95.7	NC1CCN(C(=O)c2ccc(/C=C/c3n[nH]c4ccccc34)cc2)CC1 [Compound 78, (E)-1-{4-[2-(1H-indazol-3-yl)vinyl]benzoyl}-4-aminopiperidine]	
94.4	CCN(CC)CCNC(=O)c1ccc(/C=C/c2n[nH]c3ccccc23)cc1 [Compound 68, (E)-N-[2-(diethylamino)ethyl]-4-[2-(1H-indazol-3-yl)vinyl]benzamide]	
94.4	O=CN1CCN(C(=O)c2ccc(/C=C/c3n[nH]c4ccccc34)cc2)CC1 [Compound 65, (E)-4-{4-[2-(1H-indazol-3-yl)vinyl]benzoyl}piperazine-1-carbaldehyde]	
	CCOC(=O)COc1ccc(/C=C/c2n[nH]c3ccccc23)cc1 [Compound 3, ethyl (E)-4-[2-(1H-indazol-3-yl)vinyl]phenoxyacetate]	inhibition at 3.16 µM (MV-4-11): 37%; inhibition at 10 µM (K562): 14%
	O=C1CN(C(=O)c2ccc(/C=C/c3n[nH]c4ccccc34)cc2)CCN1 [Compound 70, (E)-4-{4-[2-(1H-indazol-3-yl)vinyl]benzoyl}piperadin-2-one]	Inhibitory activity on Flt-3 (%) (human Flt-3): 93.7%
95.1	CC(=O)N(C)CC(=O)N1CCN(C(=O)c2ccc(/C=C/c3n[nH]c4ccccc34)cc2)CC1 [Compound 75, (E)-4-(N-acetyl-N-methylaminoacetyl)-1-(4-[2-(1H-indazol-3-yl)vinyl]benzoyl}piperazine]	
97.8	CN(C)CCOc1ccc(/C=C/c2n[nH]c3ccccc23)cc1 [Compound 2, (E)-3-(2-[4-(2-dimethylaminoethoxy)phenyl]vinyl}-1H-indazole hydrochloride]	

Compound	inhibition at 10 µM (human Flt-3) [%]	also measured
O=C(c1ccc(/C=C/c2n[nH]c3ccccc23)cc1)N1CCNCC1 [Compound 64, (E)-1-{4-[2-(1H-indazol-3-yl)vinyl]benzoyl}piperazine]	94.2	
COc1cc(/C=C/c2n[nH]c3ccccc23)ccc1OCCN1CCOCC1 [Compound 30, (E)-3-{2-[3-methoxy-4-(2-morpholinoethoxy)phenyl]vinyl}-1H-indazole hydrochloride]	98.1	
CCN(CC)C(=O)c1ccc(/C=C/c2n[nH]c3ccccc23)cc1 [Compound 62, (E)-N,N-Diethyl-4-[2-(1H-indazol-3-yl)vinyl]benzamide hydrochloride]	93.7	
